{"source": "patent US4556653A", "about": "“Pyrido[1,5]benzodiazepinone derivatives and pharmacological activities thereof” (Dompe' Farmaceutica S.p.A., priority 1983, dated 1985)", "key": {"Carbachole salivation": {"test_system": "Carbachole salivation", "experiment": "Carbachole salivation in the rat", "type": "in vivo, rat (male Sprague-Dawley)", "conditions": "62.5 mg/kg p.o., one hour before carbachole 1 mg/kg i.p.", "procedure": "Carbachole salivation in the rat\nThe method cited by R. Turner: \"Parasympatholytic Agents\" in R. Turner \"Screening Methods in Pharmacology\" pag. 137. Academic Press. New York and London 1965, with slight changes, was used.\nMale Sprague-Dawley rats, average weight 150.-+.5 g, fasting since 24 hours, were used.\nThe salivation was induced by the intraperitoneal administration of 1 mg/kg of carbachole.\nThe products under exam were administered orally one hour before the cholinergic stimulus."}, "in vivo": {"experiment": "in vivo", "conditions": "mouse, po, Swiss mice, 14 days observation", "procedure": "The acute toxicity was determined by administering by oral route the substances under exam to Swiss mice; average weight 20.-+.2 g. The observation period was 14 days. 10 Animals were used for each tested dose."}, "Gastric acid secretion": {"test_system": "Gastric acid secretion", "experiment": "Gastric acid secretion in the pylorus ligated rat (antisecretory activity)", "type": "in vivo, rat (male Sprague-Dawley)", "conditions": "4 hours", "procedure": "Gastric acid secretion in the pylorus ligated rat\nMale Sprague-Dawley rats weighing 150.-+.5 g fasting since 48 hours were used. Pylorus ligation was performed for 4 hours. The products under exam were administered by the oral route immediately after the ligation."}, "muscarinic receptor": {"test_system": "muscarinic receptor", "experiment": "Interaction with muscarinic receptor (displacement of 3H-QNB bound to rat cerebral cortex receptors)", "type": "binding", "design": "unit not given here"}, "[1]": {"conditions": "concentration 10^-5 (unit not given)"}, "[2]": {"conditions": "concentration 10^-6 (unit not given)"}, "[3]": {"conditions": "concentration 10^-7 (unit not given)"}}}
{"compound": "CC(C(=O)N1c2ccccc2C(=O)Nc2cccnc21)N1CCCCC1", "note": "(stereo not shown) [Compound 1, 11-[2-(Piperidin-1-yl)propionyl]-5,11-dihydro-6H-pyrido-[2,3-b][1,4]benzodiazepin-6-one]", "values": [{"measurement": "Carbachol salivation - % protection", "setting": "Carbachole salivation", "result": 0, "unit": "%"}, {"measurement": "LD50 at 336 h", "setting": "in vivo", "result": "> 500", "unit": "mg/kg"}, {"measurement": "% Antisecretory activity", "setting": "Gastric acid secretion; 6.25 mg/kg p.o.", "result": 10.3, "unit": "%"}, {"measurement": "% Antisecretory activity", "setting": "Gastric acid secretion; 12.5 mg/kg p.o.", "result": 36.3, "unit": "%"}, {"measurement": "% Antisecretory activity", "setting": "Gastric acid secretion; 25 mg/kg p.o.", "result": 71.3, "unit": "%"}, {"measurement": "Interaction with muscarinic receptor", "setting": "muscarinic receptor; [1]", "result": 46.6}, {"measurement": "Interaction with muscarinic receptor", "setting": "muscarinic receptor; [2]", "result": 3.96}, {"measurement": "Interaction with muscarinic receptor", "setting": "muscarinic receptor; [3]", "result": 0}]}
{"compound": "O=C1Nc2cccnc2N(C(=O)CN2CCCCCC2)c2ccccc21", "note": "[Compound 2, 11-[2-(Hexamethylenimino)acetyl]-5,11-dihydro-6H-pyrido[2,3-b][1,4]benzodiazepin-6-one]", "values": [{"measurement": "Carbachol salivation - % protection", "setting": "Carbachole salivation", "result": 100, "unit": "%"}, {"measurement": "LD50 at 336 h", "setting": "in vivo", "result": "> 500", "unit": "mg/kg"}, {"measurement": "% Antisecretory activity", "setting": "Gastric acid secretion; 6.25 mg/kg p.o.", "result": 11.6, "unit": "%"}, {"measurement": "% Antisecretory activity", "setting": "Gastric acid secretion; 12.5 mg/kg p.o.", "result": 33.7, "unit": "%"}, {"measurement": "% Antisecretory activity", "setting": "Gastric acid secretion; 25 mg/kg p.o.", "result": 55.2, "unit": "%"}, {"measurement": "Interaction with muscarinic receptor", "setting": "muscarinic receptor; [1]", "result": 93.3}, {"measurement": "Interaction with muscarinic receptor", "setting": "muscarinic receptor; [2]", "result": 49.7}, {"measurement": "Interaction with muscarinic receptor", "setting": "muscarinic receptor; [3]", "result": 12.8}]}
{"compound": "O=C1Nc2cccnc2N(C(=O)CCN2CCCCCC2)c2ccccc21", "note": "[Compound 4, 11-[3-(Hexamethylenimino)propionyl]-5,11-dihydro-6H-pyrido[2,3-b][1,4]benzodiazepin-6-one]", "values": [{"measurement": "Carbachol salivation - % protection", "setting": "Carbachole salivation", "result": 50, "unit": "%"}, {"measurement": "LD50 at 336 h", "setting": "in vivo", "result": "< 500", "unit": "mg/kg"}, {"measurement": "% Antisecretory activity", "setting": "Gastric acid secretion; 6.25 mg/kg p.o.", "result": 21.5, "unit": "%"}, {"measurement": "% Antisecretory activity", "setting": "Gastric acid secretion; 12.5 mg/kg p.o.", "result": 50.2, "unit": "%"}, {"measurement": "% Antisecretory activity", "setting": "Gastric acid secretion; 25 mg/kg p.o.", "result": 64.1, "unit": "%"}, {"measurement": "Interaction with muscarinic receptor", "setting": "muscarinic receptor; [1]", "result": 94.4}, {"measurement": "Interaction with muscarinic receptor", "setting": "muscarinic receptor; [2]", "result": 54.3}, {"measurement": "Interaction with muscarinic receptor", "setting": "muscarinic receptor; [3]", "result": 3.0}]}
{"compound": "CC1CCCCN1CC(=O)N1c2ccccc2NC(=O)c2cccnc21", "note": "(stereo not shown) [Compound 5, 11-[2-(2-Methylpiperidin-1-yl)acetyl]-6,11-dihydro-5H-pyrido[2,3-b][1,5]benzodiazepin-5-one]", "values": [{"measurement": "Carbachol salivation - % protection", "setting": "Carbachole salivation", "result": 100, "unit": "%"}, {"measurement": "LD50 at 336 h", "setting": "in vivo", "result": "< 500", "unit": "mg/kg"}, {"measurement": "% Antisecretory activity", "setting": "Gastric acid secretion; 6.25 mg/kg p.o.", "result": 18.7, "unit": "%"}, {"measurement": "% Antisecretory activity", "setting": "Gastric acid secretion; 12.5 mg/kg p.o.", "result": 58.4, "unit": "%"}, {"measurement": "% Antisecretory activity", "setting": "Gastric acid secretion; 25 mg/kg p.o.", "result": 66.7, "unit": "%"}, {"measurement": "Interaction with muscarinic receptor", "setting": "muscarinic receptor; [1]", "result": 96.9}, {"measurement": "Interaction with muscarinic receptor", "setting": "muscarinic receptor; [2]", "result": 71.7}, {"measurement": "Interaction with muscarinic receptor", "setting": "muscarinic receptor; [3]", "result": 14.6}]}
{"compound": "CN1CCN(CC(=O)N2c3ccccc3C(=S)Nc3cccnc32)CC1", "note": "[Compound 6, 11-[2-(4-Methylpiperazin-1-yl)acetyl]-5,11-dihydro-6H-pyrido[2,3-b][1,4]benzodiazepin-6-thione]", "values": [{"measurement": "Carbachol salivation - % protection", "setting": "Carbachole salivation", "result": 10, "unit": "%"}, {"measurement": "LD50 at 336 h", "setting": "in vivo", "result": "< 500", "unit": "mg/kg"}, {"measurement": "% Antisecretory activity", "setting": "Gastric acid secretion; 6.25 mg/kg p.o.", "result": 7.2, "unit": "%"}, {"measurement": "% Antisecretory activity", "setting": "Gastric acid secretion; 12.5 mg/kg p.o.", "result": 25.8, "unit": "%"}, {"measurement": "% Antisecretory activity", "setting": "Gastric acid secretion; 25 mg/kg p.o.", "result": 51.4, "unit": "%"}, {"measurement": "Interaction with muscarinic receptor", "setting": "muscarinic receptor; [1]", "result": 85.5}, {"measurement": "Interaction with muscarinic receptor", "setting": "muscarinic receptor; [2]", "result": 43.9}, {"measurement": "Interaction with muscarinic receptor", "setting": "muscarinic receptor; [3]", "result": 7.5}]}
{"compound": "CC1(C)CCCN(CC(=O)N2c3ccccc3C(=O)Nc3cccnc32)C1", "note": "[Compound 10]", "values": [{"measurement": "Carbachol salivation - % protection", "setting": "Carbachole salivation", "result": 0, "unit": "%"}, {"measurement": "LD50 at 336 h", "setting": "in vivo", "result": "> 500", "unit": "mg/kg"}, {"measurement": "% Antisecretory activity", "setting": "Gastric acid secretion; 6.25 mg/kg p.o.", "result": 12.4, "unit": "%"}, {"measurement": "% Antisecretory activity", "setting": "Gastric acid secretion; 12.5 mg/kg p.o.", "result": 24.7, "unit": "%"}, {"measurement": "% Antisecretory activity", "setting": "Gastric acid secretion; 25 mg/kg p.o.", "result": 41.5, "unit": "%"}, {"measurement": "Interaction with muscarinic receptor", "setting": "muscarinic receptor; [1]", "result": 30.2}, {"measurement": "Interaction with muscarinic receptor", "setting": "muscarinic receptor; [2]", "result": 0.2}, {"measurement": "Interaction with muscarinic receptor", "setting": "muscarinic receptor; [3]", "result": 0}]}
{"compound": "CN1CCN(CC(=O)N2c3ccccc3C(=O)Nc3cccnc32)CC1", "note": "[P, Pirenzepine, reference compound]", "values": [{"measurement": "Carbachol salivation - % protection", "setting": "Carbachole salivation", "result": 10, "unit": "%"}, {"measurement": "% Antisecretory activity", "setting": "Gastric acid secretion; 6.25 mg/kg p.o.", "result": 7.9, "unit": "%"}, {"measurement": "% Antisecretory activity", "setting": "Gastric acid secretion; 12.5 mg/kg p.o.", "result": 46.0, "unit": "%"}, {"measurement": "% Antisecretory activity", "setting": "Gastric acid secretion; 25 mg/kg p.o.", "result": 71.5, "unit": "%"}]}
